The values below come from paper PMC7329795 (Pharmacological Reports, 2020).

Like-named read-outs stand apart in the source and are kept apart here.

For data set [1] the following is noted: clinical studies; cited from earlier work.
The conditions of data set [2]: cited from earlier work.
Data set [3] deals with T1, CYP2C9 (Homo sapiens, UniProt P11712). The experiment in a line: CYP2C9 activity, diclofenac 4′-hydroxylation, pooled human liver microsomes. The method, then:
(§1) The final incubation volume was 0.5 ml. After a 30-min incubation, the reaction was stopped by adding 100 µl of acetonitrile. […] The final concentration of CYP2C9 was 50 pmol/ml. Concentrations of diclofenac and its metabolite 4′-hydroxydiclofenac, formed in liver microsomes or Supersomes 2C9, were assessed by the HPLC method with UV detection, as described previously.
A general note: Microsomes from liver hold many membrane-bound enzymes, among them those of drug oxidation.

The target in data set [4] is human cDNA-expressed CYP2C9 (Homo sapiens, UniProt P11712). As to the kind of experiment: CYP2C9 activity, diclofenac 4′-hydroxylation, Supersomes CYP2C9. As to the method: as §1
Data set [5] addresses T2, CYP2D6 (Homo sapiens, UniProt P10635). More on the design: method as in PMID 26033329. The conditions noted are these: psychiatric patients; cited from earlier work.
Data set [6] has as its target T3, human cDNA-expressed CYP2D6 (Homo sapiens, UniProt P10635). The conditions noted are these: recombinant enzyme.
In data set [7] the target is T4, CYP2C19 (Homo sapiens, UniProt P33261).
For data set [8], the target named is T3, human cDNA-expressed CYP2D6.
The target of data set [9] is human cDNA-expressed CYP3A4 (Homo sapiens, UniProt P08684).
Data set [10] has as its target T5, CYP3A4 (Homo sapiens, UniProt P08684).
For data set [11] the following is noted: cited from earlier work. This is another data set of the same source.
In data set [12] the target is T2, CYP2D6.
Data set [13] deals with T6, CYP1A2 (Homo sapiens, UniProt P05177).
T6 sequence (P05177 1-516): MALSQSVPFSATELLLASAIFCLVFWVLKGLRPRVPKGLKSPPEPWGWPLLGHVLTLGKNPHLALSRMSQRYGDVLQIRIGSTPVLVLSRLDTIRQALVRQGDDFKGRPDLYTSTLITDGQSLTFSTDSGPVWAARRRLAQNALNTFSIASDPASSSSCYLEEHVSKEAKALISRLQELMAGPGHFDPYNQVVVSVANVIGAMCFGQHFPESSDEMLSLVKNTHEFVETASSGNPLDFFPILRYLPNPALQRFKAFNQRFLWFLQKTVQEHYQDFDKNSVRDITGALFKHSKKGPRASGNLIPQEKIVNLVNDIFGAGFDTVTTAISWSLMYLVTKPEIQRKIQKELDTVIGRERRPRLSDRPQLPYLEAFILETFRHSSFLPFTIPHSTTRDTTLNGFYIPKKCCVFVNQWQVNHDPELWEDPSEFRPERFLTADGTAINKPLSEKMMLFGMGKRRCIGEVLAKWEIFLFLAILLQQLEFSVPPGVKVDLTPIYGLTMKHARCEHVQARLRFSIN
Conditions: liver microsomes; Lineweaver–Burk's plots.

Data set [14] deals with T6, CYP1A2.
Data set [15] deals with T2, CYP2D6. Conditions: liver microsomes; Lineweaver–Burk's plots.
The conditions of data set [16]: cited from earlier work. The source holds these as a separate data set.
Data set [17] concerns the target T4, CYP2C19. Conditions: liver microsomes; asenapine 0.01-10 μM.
In data set [18] the target is T5, CYP3A4. As to the kind of experiment: in vitro. The conditions noted are these: pH 7.4.
The target of data set [19] is T5, CYP3A4. The experiment in a line: in vitro. The conditions noted are these: pH 7.4. The source holds these as a separate data set.
Data set [20] deals with T1, CYP2C9. The experiment in a line: CYP2C9 activity, diclofenac 4′-hydroxylation, Supersomes CYP2C9. The conditions noted are these: human, pH 7.4, probe diclofenac (4′-hydroxylation). As to the method: as §1
Substrate in data set [21]: Cn1c(=O)c2c(ncn2C)n(C)c1=O
Substrate in data set [22]: CN1CCN(CCCN2c3ccccc3Sc3ccccc32)CC1

T1 sequence (P11712 whole entry): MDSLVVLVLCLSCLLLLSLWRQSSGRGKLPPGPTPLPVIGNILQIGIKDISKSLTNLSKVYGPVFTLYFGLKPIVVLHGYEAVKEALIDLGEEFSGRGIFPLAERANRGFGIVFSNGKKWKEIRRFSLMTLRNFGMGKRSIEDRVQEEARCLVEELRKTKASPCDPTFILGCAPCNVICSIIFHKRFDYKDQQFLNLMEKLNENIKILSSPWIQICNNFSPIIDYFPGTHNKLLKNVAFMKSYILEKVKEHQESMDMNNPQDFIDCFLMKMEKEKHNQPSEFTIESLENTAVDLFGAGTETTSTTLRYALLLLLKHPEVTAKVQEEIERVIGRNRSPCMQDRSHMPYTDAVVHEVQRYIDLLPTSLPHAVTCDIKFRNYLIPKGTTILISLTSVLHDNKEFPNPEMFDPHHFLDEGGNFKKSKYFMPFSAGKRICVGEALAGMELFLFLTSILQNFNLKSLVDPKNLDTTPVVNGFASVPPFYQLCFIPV
T2 sequence (P10635 whole entry): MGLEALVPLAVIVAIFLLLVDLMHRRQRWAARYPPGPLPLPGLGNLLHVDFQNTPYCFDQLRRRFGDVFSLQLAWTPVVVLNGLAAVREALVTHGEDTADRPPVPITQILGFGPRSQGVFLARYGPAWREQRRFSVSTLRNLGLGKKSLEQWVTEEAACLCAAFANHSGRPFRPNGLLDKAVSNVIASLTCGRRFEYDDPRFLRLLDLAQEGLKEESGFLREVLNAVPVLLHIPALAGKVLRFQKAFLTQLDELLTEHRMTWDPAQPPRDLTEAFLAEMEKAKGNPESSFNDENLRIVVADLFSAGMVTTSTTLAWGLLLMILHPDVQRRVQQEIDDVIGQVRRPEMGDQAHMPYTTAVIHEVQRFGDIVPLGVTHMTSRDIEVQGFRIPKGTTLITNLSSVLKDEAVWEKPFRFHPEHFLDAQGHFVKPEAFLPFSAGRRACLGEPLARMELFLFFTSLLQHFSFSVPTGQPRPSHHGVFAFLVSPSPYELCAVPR
T3 sequence (P10635 whole entry): as above
T5 sequence (P08684 whole entry): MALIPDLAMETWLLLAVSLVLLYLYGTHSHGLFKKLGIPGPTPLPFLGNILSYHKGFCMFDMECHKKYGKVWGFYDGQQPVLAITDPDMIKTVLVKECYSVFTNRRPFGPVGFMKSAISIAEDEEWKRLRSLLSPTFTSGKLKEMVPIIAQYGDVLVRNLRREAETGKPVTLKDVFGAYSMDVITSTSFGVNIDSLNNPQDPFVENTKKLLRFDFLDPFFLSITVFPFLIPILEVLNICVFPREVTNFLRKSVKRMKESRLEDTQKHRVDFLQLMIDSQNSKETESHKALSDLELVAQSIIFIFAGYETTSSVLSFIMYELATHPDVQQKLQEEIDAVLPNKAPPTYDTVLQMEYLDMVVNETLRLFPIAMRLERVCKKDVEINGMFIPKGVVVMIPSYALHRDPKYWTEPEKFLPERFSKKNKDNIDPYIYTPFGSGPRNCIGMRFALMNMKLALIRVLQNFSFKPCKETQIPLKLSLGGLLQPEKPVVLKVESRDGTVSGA
Sequence of human cDNA-expressed CYP2C9 (P11712 whole entry): as the sequence (P11712 whole entry) above
Sequence of human cDNA-expressed CYP3A4 (P08684 whole entry): as the sequence (P08684 whole entry) above

As for `O=C(CCCN1CCC(O)(c2ccc(Cl)cc2)CC1)c1ccc(F)cc1` [haloperidol], the “concentration in the liver relative to that in plasma” value in [1] was 900 fold.

For the molecule `CN1CC2c3ccccc3Oc3ccc(Cl)cc3C2C1` (stereo not drawn) [Asenapine], the “bound to plasma proteins” value in data set [2] is reported as 95%. Moreover, the concentration for half-maximal inhibition (IC50) (as a rule, the concentration needed to halve the response being measured) against CYP2C9 [3] is more than 1000 µM; in [4] it was more than 1000 µM; against CYP2C19 [7], more than 1000 µM; in data set [8] it was 0.398 µM; against CYP2D6 [12], 0.391 µM; against CYP1A2 [14], 0.697 µM. For the same molecule, the “effect on the activity of CYP2C9” value at CYP2C9 [3] (liver microsomes, asenapine 0.01-10 μM) is on record as “did not affect”. For the same molecule, on CYP2D6 [5], the “effect on the concentration of paroxetine (a CYP2D6 substrate) in the blood plasma” value is “doubled”. For the same molecule, the “type of inhibition (CYP2D6)” value (in data set [6]; on CYP2D6 [15]) was “competitive” throughout. Also, the inhibition constant (Ki) (in general, the dissociation constant of the complex between target and ligand, obtained from inhibition or displacement) in [8] stood at 1.89 µM; at CYP2D6 [12] it was 1.75 µM; on CYP1A2 [14] it was 3.2 µM. The “type of inhibition (CYP3A4)” value in data set [9] (recombinant enzyme) was “non-competitive”; on CYP3A4 [10] (liver microsomes, Lineweaver–Burk's plots), “non-competitive”. Besides, the “estimated terminal half-life (t1/2)” value in [11] (adults) is listed as “approximately 24 h”. Moreover, the therapeutic plasma concentrations entry in data set [11] is listed as “up to 0.1 μM”. For the same molecule, the “type of inhibition (CYP1A2)” value on CYP1A2 [13] was “mixed”. Besides, the pKa (usually the negative logarithm of the acid dissociation constant) in data set [16] (amine) is given as 9.64; in [16] (protonated base), 8.6. Besides, the log partition coefficient (log P) (as a rule, a log measure of how a compound divides between an organic and an aqueous phase) in [16] (cationic form) is on record as 1.4; in data set [16] (neutral form) it was 4.9. The “effect on the activity of CYP2C19” value at CYP2C19 [17] is “did not affect”.

On to `C[C@]12CC[C@H]3[C@@H](CCC4=CC(=O)CC[C@@]43C)[C@@H]1CC[C@@H]2O` [testosterone], for which the “Vmax, testosterone 6β-hydroxylation” value is given as 42.9 pmol/pmol CYP/min in data set [9] (Supersomes CYP3A4) and 72.9 pmol/mg protein/min at CYP3A4 [10] (human liver microsomes). Further, the Km – broadly, the concentration of substrate that gives half-maximal velocity – at 30 min on CYP3A4 [18] was found to be 428 µM. Besides, the Km at 20 min on CYP3A4 [19] came out at 283 µM.

Take `O=C(O)Cc1ccccc1Nc1c(Cl)cccc1Cl` [diclofenac]: the Km at 30 min at CYP2C9 [3] (human, pH 7.4) is 137 µM; at CYP2C9 [20], 132 µM. Besides, in data set [4] (Supersomes CYP2C9), the “Vmax, diclofenac 4′-hydroxylation” value is given as 213.6 pmol/pmol CYP/min.

B1: CYP1A2 (Homo sapiens) (protein)
chain: T6 sequence (P05177 1-516)
For the molecule B1, in data set [21], the Michaelis-Menten constant (Km) amounted to 709 µM and the Vmax amounted to 9.67 pmol/mg protein/min.

B2: CYP2C19 (Homo sapiens) (protein)
chain: MDPFVVLVLCLSCLLLLSIWRQSSGRGKLPPGPTPLPVIGNILQIDIKDVSKSLTNLSKIYGPVFTLYFGLERMVVLHGYEVVKEALIDLGEEFSGRGHFPLAERANRGFGIVFSNGKRWKEIRRFSLMTLRNFGMGKRSIEDRVQEEARCLVEELRKTKASPCDPTFILGCAPCNVICSIIFQKRFDYKDQQFLNLMEKLNENIRIVSTPWIQICNNFPTIIDYFPGTHNKLLKNLAFMESDILEKVKEHQESMDINNPRDFIDCFLIKMEKEKQNQQSEFTIENLVITAADLLGAGTETTSTTLRYALLLLLKHPEVTAKVQEEIERVIGRNRSPCMQDRGHMPYTDAVVHEVQRYIDLIPTSLPHAVTCDVKFRNYLIPKGTTILTSLTSVLHDNKEFPNPEMFDPRHFLDEGGNFKKSNYFMPFSAGKRICVGEGLARMELFLFLTFILQNFNLKSLIDPKDLDTTPVVNGFASVPPFYQLCFIPV
Consider B2, for which, in [22], the Km was 199.9 µM and the Vmax is 1.58 nmol/mg protein/min.
